Experiments:
[1] = in vitro; conditions: mouse, liver microsomes
[2] = in vitro; conditions: human, liver microsomes
[3] = in vitro; conditions: rat, liver microsomes

remaining at 10 min, 0.5 µM [1] | remaining at 10 min, 0.5 µM [2] | remaining at 10 min, 0.5 µM [3] | SMILES
92% | 98% | 91% | O=C(O)c1c(F)ccc2cc(CNC(=O)c3cnn4cccnc34)oc12
88% | 100% | 100% | O=C(O)c1ccc2oc(CNC(=O)c3cnn4cccnc34)cc2c1
97% | 94% | 96% | O=C(O)c1cccc2cc(CNC(=O)c3cnn4cccnc34)oc12
85% | 95% | 89% | Cn1c(CNC(=O)c2cnn3cccnc23)nc2c(C(=O)O)cccc21
11% | 0% | 7% | COC(=O)c1cccc2cc(CN3Cc4ccncc4C3=O)oc12
100% | 100% | 100% | O=C(O)c1cc(Cl)cc2cc(CNC(=O)c3cnn4cccnc34)oc12
93% | 98% | 88% | O=C(O)c1c(O)c(Cl)cc2cc(CNC(=O)c3cnn4cccnc34)oc12
100% | 100% | 100% | O=C(O)c1ccc2cc(CNC(=O)c3cnn4cccnc34)oc2c1
57% | 54% | 69% | O=C(NCc1cc2cc(Cl)c3oc(=O)[nH]c(=O)c3c2o1)c1cnn2cccnc12
96% | 98% | 100% | O=C(O)c1cccc2cc(Cn3ccc4ccncc4c3=O)oc12
> 100% | 22% | 81% | CCn1nc(C)cc1C(=O)Nc1nc2cc(C(N)=O)cc(OC)c2n1C/C=C/Cn1c(NC(=O)c2cc(C)nn2CC)nc2cc(C(N)=O)cc(OCCCN3CCOCC3)c21
100% | 100% | 94% | C[C@H](NC(=O)c1cnn2cccnc12)c1cc2cc(Cl)cc(C(=O)O)c2o1
65% | 92% | 64% | O=C(NCc1cc2cc(Cl)cc(C(=O)O)c2o1)c1cncc2cccnc12
89% | 100% | 100% | Cc1ccc2c(=O)c3cccc(CC(=O)O)c3oc2c1C [VADIMEZAN]
80% | 96% | 89% | O=C(NCc1cc2cc(Cl)cc(-c3nn[nH]n3)c2o1)c1cnn2cccnc12
85% | 99% | 91% | O=C(O)c1cccc2c(Cl)c(CNC(=O)c3cnn4cccnc34)oc12
